In patent US20240115745A1, “COMPOUNDS COMPRISING A FIBROBLAST ACTIVATION PROTEIN LIGAND AND USE THEREOF” (3B PHARMACEUTICALS GMBH, priority 2021, published 2024):
*1 amine or outer side, *2 acyl side, *3 side chain or, on linkers, in order; H or OH if unused. Where a SMILES comes first, the peptide text is derived from it. Bridges are numbered along the chain shown (N, C = ends). [ ]: non-standard residue; d: D form. The star is where a group is joined. X4 = O=C(O)CN1CCN(CC(=O)O)CCN(CC(=O)NCCCOCCOCCOCCCN*)CCN(CC(=O)O)CC1; X11 = O=C(O)CN1CCN(CC(=O)O)CCN([C@H](CCC(=O)*)C(=O)O)CC1; DOTA = O=C(O)CN1CCN(CC(=O)O)CCN(CC(=O)*)CCN(CC(=O)O)CC1; X2 = O=C1NC(=O)C([*:3])=C1CC[C@H](N[*:1])C(=O)[*:2]; X9 = O=C(C1CCC[C@H]1C(=O)[*:2])[C@@H]1CCCN1[*:1]; X8 = NCCNCC(CNCCN)C(=O)NCCCOCCOCCOCCCN*; Suc = O=C(CCC(=O)[*:2])[*:1]; β3hK = NCCCC[C@H](N)CC(=O)O; Nle = CCCC[C@H](N)C(=O)O; X3 = NCCNCC(CNCCN)C(=O)*; Hexanoyl = CCCCCC(=O)*; CO = O=C([*:1])[*:2]; βAla = NCCC(=O)O; NHBu = CCCCN*

What was measured:
Recombinant human FAP = target: T1, Recombinant human FAP (Homo sapiens, UniProt Q12884); experiment: FRET-based FAP protease activity assay; type: biochemical; conditions: recombinant human FAP, FRET-peptide substrate, 37° C.; read-out: pIC50 Category (Activity) (converted)
T1 construct: purchased R&D systems 3715-SE

[1] = target: T2, FAP-expressing human WI-38 fibroblasts (Homo sapiens, UniProt Q12884); experiment: Competitive FACS binding assay; conditions: competition with 3 nM Cy5-labeled compound, WI-38 fibroblasts, 4° C., 1 hour; read-out: pIC50 Category (FACS) (converted);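 further: flow cytometry read-out of median Cy5 fluorescence on the cells, plotted versus test compound concentration, with IC50 derived by four-parameter logistic curve fitting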
T2 construct: FAP-expressing human WI-38 fibroblasts (ECACC) were cultured in EMEM; host or cells: WI-38 human fibroblasts
T2 sequence (Q12884 whole entry): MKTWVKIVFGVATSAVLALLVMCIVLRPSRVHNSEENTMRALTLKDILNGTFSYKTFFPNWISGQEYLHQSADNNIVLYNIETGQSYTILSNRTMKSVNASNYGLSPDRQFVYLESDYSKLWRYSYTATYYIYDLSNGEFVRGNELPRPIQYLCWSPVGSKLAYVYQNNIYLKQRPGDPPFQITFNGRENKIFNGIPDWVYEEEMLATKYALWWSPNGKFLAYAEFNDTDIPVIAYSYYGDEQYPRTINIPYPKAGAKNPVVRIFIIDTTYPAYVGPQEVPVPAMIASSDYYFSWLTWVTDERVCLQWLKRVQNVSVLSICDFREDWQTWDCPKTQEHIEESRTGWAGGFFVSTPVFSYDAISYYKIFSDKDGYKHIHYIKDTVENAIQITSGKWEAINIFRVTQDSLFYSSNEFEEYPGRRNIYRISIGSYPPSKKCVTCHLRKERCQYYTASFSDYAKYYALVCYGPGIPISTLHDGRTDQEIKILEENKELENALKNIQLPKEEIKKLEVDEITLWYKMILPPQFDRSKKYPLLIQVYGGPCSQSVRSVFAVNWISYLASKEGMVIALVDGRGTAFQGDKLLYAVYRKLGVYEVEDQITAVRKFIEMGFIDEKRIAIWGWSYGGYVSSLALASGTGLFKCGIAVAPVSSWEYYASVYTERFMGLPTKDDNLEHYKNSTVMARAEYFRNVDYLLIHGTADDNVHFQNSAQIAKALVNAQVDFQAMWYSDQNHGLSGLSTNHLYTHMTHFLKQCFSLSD

T1 sequence (Q12884 26-760 limits assumed): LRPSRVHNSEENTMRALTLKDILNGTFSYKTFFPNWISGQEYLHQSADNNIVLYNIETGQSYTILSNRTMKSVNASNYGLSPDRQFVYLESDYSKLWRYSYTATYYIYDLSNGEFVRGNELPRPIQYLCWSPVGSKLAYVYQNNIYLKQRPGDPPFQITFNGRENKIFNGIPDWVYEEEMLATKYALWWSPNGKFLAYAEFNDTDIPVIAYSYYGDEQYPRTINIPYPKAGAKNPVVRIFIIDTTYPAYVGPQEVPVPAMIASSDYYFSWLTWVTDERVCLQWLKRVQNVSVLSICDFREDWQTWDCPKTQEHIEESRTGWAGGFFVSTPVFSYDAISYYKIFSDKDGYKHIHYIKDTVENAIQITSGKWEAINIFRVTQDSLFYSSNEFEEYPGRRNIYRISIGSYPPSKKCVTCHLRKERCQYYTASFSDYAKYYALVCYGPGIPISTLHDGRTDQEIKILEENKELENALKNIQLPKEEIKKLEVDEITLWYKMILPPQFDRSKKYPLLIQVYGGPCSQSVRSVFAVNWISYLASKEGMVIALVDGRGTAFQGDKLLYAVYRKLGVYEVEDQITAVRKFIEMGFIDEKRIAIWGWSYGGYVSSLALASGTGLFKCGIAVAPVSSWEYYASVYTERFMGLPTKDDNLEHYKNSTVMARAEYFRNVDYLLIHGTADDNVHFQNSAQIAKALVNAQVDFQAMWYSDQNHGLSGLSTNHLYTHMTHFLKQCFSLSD

Compound	IC50 (Recombinant human FAP)	IC50 [1]
CCCCCC(=O)N[C@H]1CSC2=C(CC[C@@H](C(=O)N[C@@H](CC(=O)O)C(=O)N[C@@H](CCCCNC(=O)CC[C@H](C(=O)O)N3CCN(CC(=O)O)CCN(CC(=O)O)CC3)C(N)=O)NC(=O)[C@H](Cc3ccccc3)NC(=O)[C@H](CCC(N)=O)NC(=O)[C@H]([C@@H](C)O)NC(=O)[C@@H]3CCCN3C(=O)[C@@H]3CCCN3C1=O)C(=O)NC2=O [Compound 2023, Hex-[Cys(mli)-Pro-Pro-Thr-Gln-Phe-Cys]-Asp-Lys(NODAGA)-NH2] (Hexanoyl-CPPTQF[X2]DK(X11)-NH2; thioether 1-7)	< 100 nM	< 100 nM
CCCCNC(=O)N[C@H]1CSSC[C@@H](C(=O)N[C@@H](CCCCNC(=O)CN2CCN(CC(=O)O)CCN(CC(=O)O)CCN(CC(=O)O)CC2)CC(=O)O)NC(=O)[C@H](Cc2ccccc2)NC(=O)[C@H](CCC(=O)O)NC(=O)[C@H]([C@@H](C)O)NC(=O)[C@@H]2CCCN2C(=O)[C@@H]2CCCN2C1=O [Compound 1014, Buur-[Cys-Pro-Pro-Thr-Glu-Phe-Cys]-Bhk(DOTA)-OH] ({NHBu-CO}-CPPTEFC[β3hK](DOTA)-OH; disulfide 1-7)	< 100 nM	< 100 nM
CCCCCC(=O)N[C@H]1CSC2=C(SC[C@@H](C(=O)N[C@@H](CC(=O)O)C(N)=O)NC(=O)[C@H](Cc3ccccc3)NC(=O)[C@H](CCC(=O)O)NC(=O)[C@H]([C@@H](C)O)NC(=O)[C@@H]3CCCN3C(=O)[C@@H]3CCCN3C1=O)C(=O)N(CCCOCCOCCOCCCNC(=O)CN1CCN(CC(=O)O)CCN(CC(=O)O)CCN(CC(=O)O)CC1)C2=O [Compound 2020, Hex-[Cys(mli(DOTA-Ttd))-Pro-Pro-Thr-Glu-Phe-Cys]-Asp-NH2] (HELM PEPTIDE1{[CCCCCC(=O)[*:2]].C.P.P.T.E.F.C.D.[am]}|CHEM1{[O=C(O)CN1CCN(CC(=O)O)CCN(CC(=O)NCCCOCCOCCOCCCN2C(=O)C([*:1])=C([*:2])C2=O)CCN(CC(=O)O)CC1]}$PEPTIDE1,CHEM1,2:R3-1:R1|PEPTIDE1,CHEM1,8:R3-1:R2$$$V2.0)	< 100 nM	< 100 nM
CCCC[C@H](NC(=O)CCC(=O)NCCCOCCOCCOCCCNC(=O)CN1CCN(CC(=O)O)CCN(CC(=O)O)CCN(CC(=O)O)CC1)C(=O)N[C@H]1CSC2=C(SC[C@@H](C(=O)NCCC(=O)O)NC(=O)[C@H](Cc3ccccc3)CC(=O)[C@H](CCC(N)=O)NC(=O)[C@H]([C@@H](C)O)NC(=O)[C@@H]3CCCN3C(=O)[C@@H]3CCCN3C1=O)C(=O)NC2=O [Compound 2009, DOTA-Ttds-Nle-[Cys(mli)-Pro-Pro-Thr-Gln-Phe-Cys]-Bal-OH]	< 100 nM	< 100 nM
CCCC[C@H](NC(=O)CCC(=O)NCCCOCCOCCOCCCNC(=O)CN1CCN(CC(=O)O)CCN(CC(=O)O)CCN(CC(=O)O)CC1)C(=O)N[C@H]1CSSC[C@@H](C(=O)O)NC(=O)[C@H](Cc2ccccc2)NC(=O)[C@H](CCC(N)=O)NC(=O)[C@H]([C@@H](C)O)NC(=O)[C@@H]2CCCN2C(=O)[C@@H]2CCCN2C1=O [Compound 1009, DOTA-Ttds-Nle-[Cys-Pro-Pro-Thr-Gln-Phe-Cys]-OH]	< 100 nM	< 100 nM
CCCCCC(=O)N[C@H]1CSSC[C@@H](C(=O)N[C@@H](CC(=O)O)C(=O)N[C@@H](CCCCNC(=O)C(CNCCN)CNCCN)C(N)=O)NC(=O)[C@H](Cc2ccccc2)NC(=O)[C@H](CCC(=O)O)NC(=O)[C@H]([C@@H](C)O)NC(=O)[C@@H]2CCCN2C(=O)[C@@H]2CCCN2C1=O [Compound 1021, Hex-[Cys-Pro-Pro-Thr-Glu-Phe-Cys]-Asp-Lys(N4Ac)—NH2] (Hexanoyl-CPPTEFCDK(X3)-NH2; disulfide 1-7)	< 100 nM	< 100 nM
CCCCCC(=O)N[C@H]1CSSC[C@@H](C(=O)N[C@@H](CC(=O)O)C(=O)N[C@@H](Cc2c[nH]cn2)C(=O)N[C@@H](Cc2ccccc2)C(=O)N[C@@H](CCCNC(=N)N)C(=O)N[C@@H](CC(=O)O)C(N)=O)NC(=O)[C@H](Cc2ccccc2)NC(=O)[C@H](CCC(=O)O)NC(=O)[C@H]([C@@H](C)O)NC(=O)[C@@H]2CCCN2C(=O)[C@@H]2CCCN2C1=O [Compound 1002, Hex-[Cys-Pro-Pro-Thr-Glu-Phe-Cys]-Asp-His-Phe-Arg-Asp-NH2] (HELM PEPTIDE1{[CCCCCC(=O)[*:2]].C.P.P.T.E.F.C.D.H.F.R.D.[am]}$PEPTIDE1,PEPTIDE1,2:R3-8:R3$$$V2.0)	< 100 nM	< 100 nM
CSCC[C@H](N)C(=O)N[C@H]1CSSC[C@@H](C(=O)N[C@@H](CC(=O)O)C(=O)N[C@@H](Cc2c[nH]cn2)C(=O)N[C@@H](Cc2ccccc2)C(=O)N[C@@H](CCCNC(=N)N)C(=O)N[C@@H](CC(=O)O)C(N)=O)NC(=O)[C@H](Cc2ccccc2)NC(=O)[C@H](CCC(=O)O)NC(=O)[C@H]([C@@H](C)O)NC(=O)[C@@H]2CCCN2C(=O)[C@@H]2CCCN2C1=O [Compound 1001, H-Met-[Cys-Pro-Pro-Thr-Glu-Phe-Cys]-Asp-His-Phe-Arg-Asp-NH2] (HELM PEPTIDE1{M.C.P.P.T.E.F.C.D.H.F.R.D.[am]}$PEPTIDE1,PEPTIDE1,2:R3-8:R3$$$V2.0)	< 100 nM	< 100 nM
CCCC[C@H](NC(=O)CCC(=O)NCCCOCCOCCOCCCNC(=O)CN1CCN(CC(=O)O)CCN(CC(=O)O)CCN(CC(=O)O)CC1)C(=O)N[C@H]1CSSC[C@@H](C(=O)N[C@@H](CC(=O)O)C(N)=O)NC(=O)[C@H](Cc2ccccc2)NC(=O)[C@H](CCC(=O)O)NC(=O)[C@H]([C@@H](C)O)NC(=O)[C@@H]2CCCN2C(=O)[C@@H]2CCCN2C1=O [Compound 1003, DOTA-Ttds-Nle-[Cys-Pro-Pro-Thr-Glu-Phe-Cys]-Asp-NH2] ({X4-Suc}-[Nle]CPPTEFCD-NH2; disulfide 2-8)	< 100 nM	< 100 nM
CCCCCC(=O)N[C@H]1CSC2=C(SC[C@@H](C(=O)O)NC(=O)[C@H](Cc3ccccc3)NC(=O)[C@H](CCC(N)=O)NC(=O)[C@H]([C@@H](C)O)NC(=O)[C@@H]3CCCN3C(=O)[C@@H]3CCCN3C1=O)C(=O)N(CCCOCCOCCOCCCNC(=O)CN1CCN(CC(=O)O)CCN(CC(=O)O)CCN(CC(=O)O)CC1)C2=O [Compound 2019, Hex-[Cys(mli(DOTA-Ttd))-Pro-Pro-Thr-Gln-Phe-Cys]-OH]	< 100 nM	< 100 nM
CCCC[C@H](NC(=O)CCC(=O)NCCCOCCOCCOCCCNC(=O)C(CNCCN)CNCCN)C(=O)N[C@H]1CSC2=C(SC[C@@H](C(=O)NCCC(=O)O)NC(=O)[C@H](Cc3ccccc3)NC(=O)[C@H](CCC(N)=O)NC(=O)[C@H]([C@@H](C)O)NC(=O)[C@@H]3CCCN3C(=O)[C@@H]3CCCN3C1=O)C(=O)NC2=O [Compound 2022, N4Ac-Ttds-Nle-[Cys(mli)-Pro-Pro-Thr-Gln-Phe-Cys]-Bal-OH]	< 100 nM	< 100 nM
CCCC[C@H](NC(=O)CCC(=O)NCCCOCCOCCOCCCNC(=O)C(CNCCN)CNCCN)C(=O)N[C@H]1CSSC[C@@H](C(=O)NCCC(=O)O)NC(=O)[C@H](Cc2ccccc2)NC(=O)[C@H](CCC(N)=O)NC(=O)[C@H]([C@@H](C)O)NC(=O)[C@@H]2CCCC2C(=O)[C@@H]2CCCN2C1=O (stereo partly drawn) [Compound 1019, N4Ac-Ttds-Nle-[Cys-Pro-Pro-Thr-Gln-Phe-Cys]-Bal-OH] ({X8-Suc}-[Nle]C[X9]TQFC[βAla]-OH; disulfide 2-7)	< 100 nM	< 100 nM
CCCCCC(=O)N[C@H]1CSC2=C(CC[C@@H](C(=O)N[C@@H](CC(=O)O)C(=O)N[C@@H](CCCCNC(=O)C(CNCCN)CNCCN)C(N)=O)NC(=O)[C@H](Cc3ccccc3)NC(=O)[C@H](CCC(N)=O)NC(=O)[C@H]([C@@H](C)O)NC(=O)[C@@H]3CCCN3C(=O)[C@@H]3CCCN3C1=O)C(=O)NC2=O [Compound 2024, Hex-[Cys(mli)-Pro-Pro-Thr-Gln-Phe-Cys]-Asp-Lys(N4Ac)-NH2] (Hexanoyl-CPPTQF[X2]DK(X3)-NH2; thioether 1-7)	< 100 nM	< 100 nM
CCCC[C@H](NC(=O)CCC(=O)NCCCOCCOCCOCCCNC(=O)CN1CCN(CC(=O)O)CCN(CC(=O)O)CCN(CC(=O)O)CC1)C(=O)N[C@H]1CSC2=C(SC[C@@H](C(=O)O)NC(=O)[C@H](Cc3ccccc3)CC(=O)[C@H](CCC(N)=O)NC(=O)[C@H]([C@@H](C)O)NC(=O)[C@@H]3CCCN3C(=O)[C@@H]3CCCN3C1=O)C(=O)NC2=O [Compound 2008, DOTA-Ttds-Nle-[Cys(mli)-Pro-Pro-Thr-Gln-Phe-Cys]-OH]	< 100 nM	< 100 nM
CCCCCC(=O)N[C@H]1CSSC[C@@H](C(=O)N[C@@H](CC(=O)O)C(=O)N[C@@H](CCCCNC(=O)CN2CCN(CC(=O)O)CCN(CC(=O)O)CCN(CC(=O)O)CC2)C(N)=O)NC(=O)[C@H](Cc2ccccc2)NC(=O)[C@H](CCC(=O)O)NC(=O)[C@H]([C@@H](C)O)NC(=O)[C@@H]2CCCN2C(=O)[C@@H]2CCCN2C1=O [Compound 1013, Hex-[Cys-Pro-Pro-Thr-Glu-Phe-Cys]-Asp-Lys(DOTA)-NH2] (Hexanoyl-CPPTEFCDK(DOTA)-NH2; disulfide 1-7)	< 100 nM	< 100 nM
